PubChem BioAssay (NCI)
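All cell lines were grown in 96-well plates and treated with compound for 48 hours. Abbreviation: GI50, concentration required for 50% inhibition of growth. TGI marks complete inhibition of growth.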

How the values were obtained:
Assay in all cases: NCI anticancer screen, dose series, 48 h
[1] = tested on: 786-0 renal
[2] = tested on: ACHN renal
[3] = tested on: SK-MEL-28 melanoma
[4] = tested on: CCRF-CEM leukemia
[5] = tested on: NCI-H460 lung
[6] = tested on: T-47D breast
[7] = tested on: SNB-19 CNS
[8] = tested on: SR leukemia
[9] = tested on: MOLT-4 leukemia
[10] = tested on: LOX IMVI melanoma
[11] = tested on: RXF 393 renal
[12] = tested on: K-562 leukemia
[13] = tested on: HCT-15 colon
[14] = tested on: SK-MEL-2 melanoma
[15] = tested on: SF-539 CNS
[16] = tested on: HOP-92 NSCLC
[17] = tested on: UACC-62 melanoma
[18] = tested on: OVCAR-5 ovarian
[19] = tested on: OVCAR-4 ovarian
[20] = tested on: OVCAR-8 ovarian
[21] = tested on: UACC-257 melanoma
[22] = tested on: MDA-MB-468 breast
[23] = tested on: HL-60(TB) leukemia
[24] = tested on: HCT-116 colon
[25] = tested on: HS 578T breast
[26] = tested on: BT-549 breast
[27] = tested on: SF-268 CNS
[28] = tested on: U251 CNS

Structure (SMILES): COc1ccccc1Nc1nnc(-c2c[nH]c3ccccc23)o1
- GI50 [1]: 5.07 µM
- TGI [1]: 22.7 µM
- GI50 [2]: 5.4 µM
- TGI [2]: 45.7 µM
- GI50 [3]: 4.48 µM
- TGI [3]: 24 µM
- GI50 [4]: 0.708 µM
- TGI [4]: 21 µM
- GI50 [5]: 1.66 µM
- TGI [5]: 12.8 µM
- GI50 [6]: 2.87 µM
- TGI [6]: 25 µM
- GI50 [7]: 3.14 µM
- TGI [7]: > 100 µM
- GI50 [8]: 0.395 µM
- TGI [8]: 46.4 µM
- GI50 [9]: 0.716 µM
- TGI [9]: 14.4 µM
- GI50 [10]: 2.21 µM
- TGI [10]: 18.2 µM
- GI50 [11]: 2.09 µM
- TGI [11]: 8.14 µM
- GI50 [12]: 0.343 µM
- TGI [12]: 79.3 µM
- GI50 [13]: 0.451 µM
- TGI [13]: 21.8 µM
- GI50 [14]: 0.82 µM
- TGI [14]: 2.82 µM
- GI50 [15]: 1.63 µM
- TGI [15]: 4.76 µM
- GI50 [16]: 4.55 µM
- TGI [16]: 40.6 µM
- GI50 [17]: 1.39 µM
- TGI [17]: 14.5 µM
- GI50 [18]: 4.99 µM
- TGI [18]: 32.2 µM
- GI50 [19]: 7.54 µM
- TGI [19]: > 100 µM
- GI50 [20]: 2.87 µM
- TGI [20]: 26.2 µM
- GI50 [21]: 4.95 µM
- TGI [21]: 32.4 µM
- GI50 [22]: 0.644 µM
- TGI [22]: 3.37 µM
- GI50 [23]: 0.625 µM
- TGI [23]: 10.2 µM
- GI50 [24]: 5.38 µM
- TGI [24]: 54 µM
- GI50 [25]: 2.2 µM
- TGI [25]: 15.6 µM
- GI50 [26]: 3.07 µM
- TGI [26]: 26 µM
- GI50 [27]: 3.77 µM
- TGI [27]: > 100 µM
- GI50 [28]: 2.43 µM
- TGI [28]: 16.4 µM
